≈ marks a conversion by molar mass, not a printed value. Blank lines part the entries; values can stand above or below the molecule they belong to.
What was measured:
Assay in all cases: ≥ marks a high value that may be exact or a test limit, other limits are often not marked, values filed in µg/mL are converted to µM
[1] = test system: Escherichia coli DH5alpha
[2] = test system: Pseudomonas putida
[3] = test system: Pseudomonas fluorescens
[4] = test system: Escherichia coli JM109
[5] = test system: Enterobacter cloacae subsp. cloacae AB2010162
[6] = test system: Candida tropicalis AY91009
[7] = test system: Bacillus thuringiensis AB93100
[8] = test system: Bacillus magaterium AB90008
[9] = test system: Salmonella enterica AB2010185
[10] = test system: Staphylococcus aureus AB94004
[11] = test system: Klebsiella oxytoca AB2010143
[12] = test system: Bacillus subtilis 1A751
[13] = test system: Salmonella enterica subsp. enterica serovar Choleraesuis CMCC 50020
[14] = test system: Escherichia coli ATCC 25922
[15] = test system: Staphylococcus aureus ATCC 25923
[16] = test system: Acinetobacter baumannii
[17] = test system: Staphylococcus aureus ATCC 29213
[18] = test system: Escherichia coli ATCC 25726
[19] = test system: Staphylococcus epidermidis RP62A/1
[20] = test system: Staphylococcus epidermidis RP62A
[21] = test system: Pseudomonas aeruginosa ATCC 27853
[22] = test system: Candida albicans ATCC 90028
[23] = test system: Stenotrophomonas maltophilia
[24] = test system: Proteus mirabilis ATCC 25933
[25] = test system: Klebsiella pneumoniae ATCC 700603
[26] = test system: Acinetobacter baumannii ATCC 19606
[27] = test system: Yersinia pseudotuberculosis YPIII
[28] = test system: Pseudomonas aeruginosa ATCC 15692
[29] = test system: Enterococcus faecalis ATCC 29212
[30] = test system: Streptococcus pyogenes ATCC 21547
[31] = test system: Staphylococcus aureus Cowan 1
[32] = test system: Staphylococcus capitis 1
[33] = test system: Staphylococcus epidermidis ATCC 12228
[34] = test system: Schizosaccharomyces pombe
[35] = test system: Candida albicans ATCC 10231
[36] = test system: Acinetobacter junii RT-4
[37] = test system: Saccharomyces cerevisiae
[38] = test system: Pseudomonas syringae pv. tabaci 1918NCPPB
[39] = test system: Bacillus megaterium Bm11
[40] = test system: Escherichia coli D21

MIC [1]: ≥ 51.2 µM
MIC [2]: 24 µM (≈ 77.9 µg/mL)
MIC [3]: 23.8 µM (≈ 77.3 µg/mL)
MIC [4]: ≥ 50.4 µM
MIC [5]: ≥ 47.9 µM
MIC [6]: ≥ 48.6 µM
MIC [7]: ≥ 46.5 µM
MIC [8]: 11.8 µM (≈ 38.3 µg/mL)
MIC [9]: 25 µM (≈ 81.2 µg/mL)
MIC [10]: 23.6 µM (≈ 76.6 µg/mL)
MIC [11]: ≥ 50.5 µM
SMILES: CC[C@H](C)[C@H](NC(=O)[C@H](CC(C)C)NC(=O)[C@H](CCCN=C(N)N)NC(=O)[C@H](CCCCN)NC(=O)[C@@H](NC(=O)[C@@H](NC(=O)CNC(=O)[C@H](CC(C)C)NC(=O)[C@H](CC(C)C)NC(=O)[C@H](CCCN=C(N)N)NC(=O)CNC(=O)[C@H](CO)NC(=O)[C@H](CCC(=O)O)NC(=O)[C@H](CCCN=C(N)N)NC(=O)[C@H](CCC(=O)O)NC(=O)[C@H](CCCCN)NC(=O)[C@H](CCC(=O)O)NC(=O)[C@H](CO)NC(=O)[C@@H](NC(=O)CNC(=O)[C@@H](N)CO)[C@@H](C)O)C(C)C)C(C)C)C(=O)N[C@H](C(=O)N[C@@H](CS)C(=O)N[C@@H](Cc1ccccc1)C(=O)N[C@@H](CCCN=C(N)N)C(=O)N[C@@H](CO)C(=O)N1CCC[C@H]1C(=O)N[C@@H](Cc1ccccc1)C(=O)N1CCC[C@H]1C(N)=O)C(C)C [SGTSEKERESGRLLGVVKRLIVCFRSPFP]

MIC [12]: 1.15 µM (≈ 4 µg/mL)
MIC [14]: 4.61 µM (≈ 16 µg/mL)
MIC [15]: 4.61 µM (≈ 16 µg/mL)
SMILES: CC[C@H](C)[C@H](NC(=O)[C@H](CCCCN)NC(=O)[C@H](CC(=O)O)NC(=O)[C@H](CC(C)C)NC(=O)[C@@H](NC(=O)[C@H](CC(N)=O)NC(=O)[C@H](CC(C)C)NC(=O)[C@H](Cc1ccccc1)NC(=O)[C@H](Cc1ccccc1)NC(=O)[C@H](CCCCN)NC(=O)[C@H](CCCCN)NC(=O)CNC(=O)[C@H](C)NC(=O)[C@H](CCC(N)=O)NC(=O)[C@H](CCCCN)NC(=O)[C@@H](NC(=O)[C@@H](NC(=O)[C@H](CC(=O)O)NC(=O)[C@H](Cc1c[nH]c2ccccc12)NC(=O)[C@H](CC(C)C)NC(=O)CN)[C@@H](C)O)[C@@H](C)CC)C(C)C)C(=O)N[C@@H](CCCN=C(N)N)C(=O)N[C@H]1CSSC[C@@H](C(=O)N[C@@H](CCCN=C(N)N)C(=O)N[C@H](C(=O)O)[C@@H](C)O)NC(=O)CNC(=O)CNC(=O)[C@H](C)NC(=O)[C@H](C(C)C)NC(=O)[C@H](CCCCN)NC1=O [GLWDTIKQAGKKFFLNVLDKIRCKVAGGCRT]
MIC [13]: ≥ 36.9 µM

MIC [16]: 6.25 µM (≈ 19.1 µg/mL)
MIC [17]: 3.1 µM (≈ 9.49 µg/mL)
MIC [18]: 6.25 µM (≈ 19.1 µg/mL)
MIC [19]: 0.8 µM (≈ 2.45 µg/mL)
MIC [20]: 0.8 µM (≈ 2.45 µg/mL)
MIC [21]: 12.5 µM (≈ 38.3 µg/mL)
MIC [22]: ≥ 100 µM
MIC [23]: 1.6 µM (≈ 4.9 µg/mL)
MIC [24]: ≥ 100 µM
MIC [25]: 6.25 µM (≈ 19.1 µg/mL)
MIC [15]: 1.6 µM (≈ 4.9 µg/mL)
SMILES: CC[C@H](C)[C@H](N)C(=O)N[C@@H](CCCCN)C(=O)N[C@@H](CC(C)C)C(=O)N[C@@H](CO)C(=O)N1CCC[C@H]1C(=O)N[C@@H](CCCCN)C(=O)N[C@H](C(=O)N[C@@H](CCCCN)C(=O)N[C@@H](CC(=O)O)C(=O)N[C@@H](CC(N)=O)C(=O)N[C@@H](CC(C)C)C(=O)N[C@@H](CCCCN)C(=O)N[C@@H](CCCCN)C(=O)N[C@H](C(=O)N[C@@H](CC(C)C)C(=O)N[C@@H](CCCCN)C(=O)NCC(=O)N[C@@H](C)C(=O)N[C@H](C(=O)N[C@@H](CCCCN)C(=O)NCC(=O)N[C@@H](C)C(=O)N[C@H](C(=O)N[C@@H](C)C(=O)N[C@H](C(=O)N[C@@H](C)C(=O)N[C@@H](CCCCN)C(=O)N[C@@H](CCSC)C(=O)N[C@H](C(N)=O)C(C)C)C(C)C)[C@@H](C)CC)[C@@H](C)CC)C(C)C)[C@@H](C)O [IKLSPKTKDNLKKVLKGAIKGAIAVAKMV]

MIC [26]: 12 µM (≈ 18.6 µg/mL)
MIC [27]: 3 µM (≈ 4.66 µg/mL)
MIC [28]: 12 µM (≈ 18.6 µg/mL)
MIC [29]: 3 µM (≈ 4.66 µg/mL)
MIC [30]: 6 µM (≈ 9.31 µg/mL)
MIC [31]: 1.5 µM (≈ 2.33 µg/mL)
MIC [32]: 1.5 µM (≈ 2.33 µg/mL)
MIC [21]: 24 µM (≈ 37.2 µg/mL)
MIC [33]: 1.5 µM (≈ 2.33 µg/mL)
MIC [34]: 3 µM (≈ 4.66 µg/mL)
MIC [14]: 6 µM (≈ 9.31 µg/mL)
MIC [35]: 6 µM (≈ 9.31 µg/mL)
MIC [36]: 24 µM (≈ 37.2 µg/mL)
MIC [37]: 3 µM (≈ 4.66 µg/mL)
MIC [38]: 6 µM (≈ 9.31 µg/mL)
MIC [39]: 1.5 µM (≈ 2.33 µg/mL)
MIC [40]: 12 µM (≈ 18.6 µg/mL)
MIC [15]: 3 µM (≈ 4.66 µg/mL)
SMILES: CC(C)C[C@H](NC(=O)[C@H](CC(C)C)NC(=O)[C@H](CCCN=C(N)N)NC(=O)CNC(=O)[C@H](CC(C)C)NC(=O)[C@H](CC(C)C)NC(=O)[C@H](CCCCN)NC(=O)[C@H](CO)NC(=O)[C@H](CC(C)C)NC(=O)[C@H](Cc1c[nH]c2ccccc12)NC(=O)[C@H](CCC(N)=O)NC(=O)[C@H](CC(C)C)NC(=O)[C@@H](N)CC(C)C)C(N)=O [LLQWLSKLLGRLL]

— DBAASP
